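All cell lines were grown in 96-well plates and treated with compound for 48 hours. GI50 marks 50% less growth.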 Active and inactive are the calls of the source. No stated cut-off is given here; in the data, active = GI50 up to about 1.1 µM and inactive = higher.
What was measured:
Assay in all cases: NCI anticancer screen, dose series, 48 h
T47D = test system: T47D
Malme-3M = test system: Malme-3M
COLO 205 = test system: COLO 205
786-0 = test system: 786-0
RPMI-8226 = test system: RPMI-8226
MCF7 = test system: MCF7
OVCAR-4 = test system: OVCAR-4
BT-549 = test system: BT-549
SK-MEL-28 = test system: SK-MEL-28
MOLT-4 = test system: MOLT-4
SN12C = test system: SN12C
DU-145 = test system: DU-145
MDA-MB-231 = test system: MDA-MB-231
LOX IMVI = test system: LOX IMVI
RXF 393 = test system: RXF 393
OVCAR-8 = test system: OVCAR-8
SNB-75 = test system: SNB-75
SK-MEL-2 = test system: SK-MEL-2
K562 = test system: K562
SW-620 = test system: SW-620
SF-539 = test system: SF-539
A498 = test system: A498
HT-29 = test system: HT-29
TK-10 = test system: TK-10
OVCAR-3 = test system: OVCAR-3
NCI-H226 = test system: NCI-H226
HCT-15 = test system: HCT-15
PC-3 = test system: PC-3
Hs-578T = test system: Hs-578T
U-251 = test system: U-251
ACHN = test system: ACHN
CCRF-CEM = test system: CCRF-CEM
UACC-62 = test system: UACC-62
UACC-257 = test system: UACC-257
NCI/ADR-RES = test system: NCI/ADR-RES
SNB-19 = test system: SNB-19
SF-268 = test system: SF-268
MDA-MB-435 = test system: MDA-MB-435
HL-60 = test system: HL-60
HCC 2998 = test system: HCC 2998
IGROV-1 = test system: IGROV-1
HCT-116 = test system: HCT-116
SF-295 = test system: SF-295
HOP-62 = test system: HOP-62
NCI-H23 = test system: NCI-H23
EKVX = test system: EKVX
CAKI-1 = test system: CAKI-1
MDA-N = test system: MDA-N
KM12 = test system: KM12
M14 = test system: M14
SK-OV-3 = test system: SK-OV-3
NCI-H522 = test system: NCI-H522
OVCAR-5 = test system: OVCAR-5
NCI-H460 = test system: NCI-H460
A549 = test system: A549
SK-MEL-5 = test system: SK-MEL-5
HOP-92 = test system: HOP-92
UO-31 = test system: UO-31

Measured: GI50

O=c1cc(N2CCOCC2)[nH]c(=O)n1-c1ccc(F)cc1
> 100 µM: HCT-15
inactive: T47D > 100 µM | Malme-3M > 100 µM | COLO 205 > 100 µM | 786-0 > 100 µM | RPMI-8226 > 100 µM | MCF7 > 100 µM | OVCAR-4 > 100 µM | BT-549 > 100 µM | SK-MEL-28 > 100 µM | MOLT-4 > 100 µM | SN12C > 100 µM | DU-145 > 100 µM | MDA-MB-231 > 100 µM | LOX IMVI > 100 µM | RXF 393 > 100 µM | OVCAR-8 > 100 µM | SNB-75 > 100 µM | SK-MEL-2 > 100 µM | K562 > 100 µM | SW-620 > 100 µM | SF-539 > 100 µM | A498 > 100 µM | HT-29 > 100 µM | TK-10 > 100 µM | OVCAR-3 > 100 µM | NCI-H226 > 100 µM | PC-3 > 100 µM | Hs-578T > 100 µM | U-251 > 100 µM | ACHN > 100 µM | CCRF-CEM > 100 µM | UACC-62 > 100 µM | UACC-257 > 100 µM | NCI/ADR-RES > 100 µM | SNB-19 > 100 µM | SF-268 > 100 µM | MDA-MB-435 > 100 µM | HL-60 > 100 µM | HCC 2998 > 100 µM | IGROV-1 > 100 µM | HCT-116 > 100 µM | SF-295 > 100 µM | HOP-62 > 100 µM | NCI-H23 > 100 µM | EKVX > 100 µM | CAKI-1 > 100 µM | MDA-N > 100 µM | KM12 > 100 µM | M14 > 100 µM | SK-OV-3 > 100 µM | NCI-H522 > 100 µM | OVCAR-5 > 100 µM | NCI-H460 > 100 µM

CC(C)C1OC2(C)OC(=N)C1(C#N)C(C#N)(C#N)C2C (stereo not drawn)
inactive: T47D 15 µM | Malme-3M 19.6 µM | COLO 205 14.5 µM | 786-0 19.4 µM | MCF7 18.7 µM | A549 > 100 µM | SK-MEL-5 13.7 µM | BT-549 51.6 µM | SK-MEL-28 37.1 µM | MOLT-4 30.1 µM | SN12C 13.9 µM | DU-145 28.4 µM | MDA-MB-231 15.4 µM | LOX IMVI 19 µM | RXF 393 36.2 µM | HOP-92 17.7 µM | OVCAR-8 25.8 µM | SNB-75 32.1 µM | SK-MEL-2 17.6 µM | K562 30 µM | SW-620 26.6 µM | SF-539 24.6 µM | A498 67.5 µM | HT-29 16.3 µM | TK-10 47.1 µM | OVCAR-3 17.7 µM | NCI-H226 > 100 µM | PC-3 24.6 µM | Hs-578T 24.3 µM | U-251 24.2 µM | ACHN 36 µM | CCRF-CEM 16 µM | UACC-62 27.6 µM | UO-31 45.7 µM | UACC-257 28.5 µM | NCI/ADR-RES 54.8 µM | SNB-19 > 10 µM | SF-268 20.1 µM | MDA-MB-435 37.8 µM | HL-60 15.9 µM | HCC 2998 13.7 µM | IGROV-1 > 10 µM | HCT-116 27.2 µM | SF-295 > 100 µM | NCI-H23 30.6 µM | EKVX 18.7 µM | CAKI-1 10.9 µM | MDA-N 15.2 µM | KM12 52 µM | M14 14.6 µM | SK-OV-3 > 100 µM | OVCAR-5 25.6 µM | NCI-H460 15.8 µM
12.8 µM: HCT-15
